The source of these data is patent US7902354B2, “Lapachone compounds and methods of use thereof” (ArQule, Inc., priority 2006, dated 2011).

What is called IC50 is the concentration at which inhibition is half-maximal. Broadly, the melting point is the temperature of the solid-liquid transition.

Like-named read-outs stand apart in the source and are kept apart here. A value given as a limit tells only on which side of the number the result lay.

Series [1] has as its system A549 human lung carcinoma cells. The experiment in a line: MTS cell viability assay, A549 human lung carcinoma cells. The format is cell-based. The conditions noted are these: read-out: IC50 Values, Cancerous Cells, Lung A549. Background: Tetrazolium assays rely on reduction of a dye to a coloured formazan, in cell work by metabolically active cells.
Series [2] deals with DLD-1 human colon carcinoma cells. Put plainly: MTS cell viability assay, DLD-1 human colon carcinoma cells. The format is cell-based. The conditions noted are these: read-out: IC50 Values, Cancerous Cells, Colon DLD-1.
Series [3] concerns DU-145 human prostate carcinoma cells. The experiment in a line: MTS cell viability assay, DU-145 human prostate carcinoma cells. The conditions noted are these: read-out: IC50 Values, Cancerous Cells, Prostate DU-145. The format is cell-based.
For series [4], the system named is K-562 human leukemia cells. The experiment in a line: MTS cell viability assay, K-562 human leukemia cells. The format is cell-based. The conditions noted are these: read-out: IC50 Values, Cancerous Cells, Leukemia K-562.
The test system of series [5] is PACA-2 human pancreatic carcinoma cells. Put plainly: MTS cell viability assay, PACA-2 human pancreatic carcinoma cells. The conditions noted are these: read-out: IC50 Values, Cancerous Cells, Pancreas PACA-2. The format is cell-based.
For series [6], the system named is NCM-460 normal colon epithelial cells. The experiment in a line: MTS cell viability assay, NCM-460 normal colon epithelial cells. The format is cell-based. The conditions noted are these: for IC50: Homo sapiens, read-out: IC50 Values, Normal Cells, Colon NCM-460.
Where [7] appears, read: A549, 4 h compound incubation, MTS.
Setting [8] is: DLD-1, 4 h compound incubation, MTS.
[9] abbreviates: DU-145, 4 h compound incubation, MTS.
[10] abbreviates: K562, K-562, 4 h compound incubation, MTS.
[11] abbreviates: PACA-2, 4 h compound incubation, MTS.
Setting [12] is: NCM460, NCM-460, 4 h compound incubation, MTS.

Consider `O=C1C(=O)c2ccccc2C2=C1SCC1(CCN(S(=O)(=O)c3c(Cl)nc4sccn34)CC1)O2` [Compound 77, 1′-[(6-chloroimidazo[2,1-b][1,3]thiazol-5-yl)sulfonyl]spiro[naphtho[1,2-b][1,4]oxathiine-2,4′-piperidine]-5,6-dione], for which the half-inhibitory concentration (IC50) in series [1] (setting [7]) is more than 100 µM; in series [2] (setting [8]), 20.6 µM; in series [3] (setting [9]), 49.2 µM; in series [4] (setting [10]), 22.9 µM; in series [5] (setting [11]), 16.1 µM; in series [6] (setting [12]), 76.4 µM. Besides, the “Fold Selectivity (NCM-460/DLD1)” value in series [6] (ratio of IC50 NCM-460 / DLD1) is 3.7.
As to `O=C1C(=O)c2ccccc2C2=C1SCC1(CCN(C(=O)c3cnccc3C(=O)O)CC1)O2` [Compound 237, 3-[(5,6-dioxo-5,6-dihydro-1′H-spiro[naphtho[1,2-b][1,4]oxathiine-2,4′-piperidin]-1′-yl)carbonyl]isonicotinic acid], the half-inhibitory concentration (IC50) was more than 100 µM in series [1] (setting [7]); 66.1 µM in series [2] (setting [8]); 61.3 µM in series [3] (setting [9]); 49.3 µM in series [4] (setting [10]); 48 µM in series [5] (setting [11]); 94.2 µM in series [6] (setting [12]). Further, the “Fold Selectivity (NCM-460/DLD1)” value in series [6] (ratio of IC50 NCM-460 / DLD1) is 1.4.
Consider `CCCCC(CC)COC(=O)N1CCC2(CC1)CSC1=C(O2)c2ccccc2C(=O)C1=O` (stereo not shown) [Compound 95, 2-ethylhexyl 5,6-dioxo-5,6-dihydro-1′H-spiro[naphtho[1,2-b][1,4]oxathiine-2,4′-piperidine]-1′-carboxylate], for which the concentration for half-maximal inhibition (IC50) amounted to 51.4 µM in series [1] (setting [7]); 10.9 µM in series [2] (setting [8]); 5.13 µM in series [3] (setting [9]); 12.3 µM in series [4] (setting [10]); 4.72 µM in series [5] (setting [11]); 37.7 µM in series [6] (setting [12]). Moreover, the “Fold Selectivity (NCM-460/DLD1)” value in series [6] (ratio of IC50 NCM-460 / DLD1) was 3.5.
As to `O=C1C(=O)c2ccccc2C2=C1SCC1(CCN(C(=O)C3CCC3C(=O)O)CC1)O2` (stereo not shown) [Compound 235, 2-[(5,6-dioxo-5,6-dihydro-1′H-spiro[naphtho[1,2-b][1,4]oxathiine-2,4′-piperidin]-1′-yl)carbonyl]cyclobutanecarboxylic acid], the IC50 was more than 100 µM in series [1] (setting [7]); 69.6 µM in series [2] (setting [8]); 54.4 µM in series [3] (setting [9]); 52.4 µM in series [4] (setting [10]); 48.5 µM in series [5] (setting [11]); 85.8 µM in series [6] (setting [12]). Also, the “Fold Selectivity (NCM-460/DLD1)” value in series [6] (ratio of IC50 NCM-460 / DLD1) worked out at 1.2.
Take `C=CCN1CCC2(CC1)CSC1=C(O2)c2ccccc2C(=O)C1=O` [Compound 131, 1′-allylspiro[naphtho[1,2-b][1,4]oxathiine-2,4′-piperidine]-5,6-dione]: the IC50 in series [1] (setting [7]) was found to be 6.9 µM; in series [2] (setting [8]) it was 1.46 µM; in series [3] (setting [9]) it was 2.7 µM; in series [4] (setting [10]), 1.39 µM; in series [5] (setting [11]) it was 1.44 µM; in series [6] (setting [12]), 2.95 µM. The “Fold Selectivity (NCM-460/DLD1)” value in series [6] (ratio of IC50 NCM-460 / DLD1) is on record as 2.0.
As for `Cc1ccc(OC(=O)N2CCC3(CC2)CSC2=C(O3)c3ccccc3C(=O)C2=O)cn1` [Compound 111, 6-methyllpyridin-3-yl 5,6-dioxo-5,6-dihydro-1′H-spiro[naphtho[1,2-b][1,4]oxathiine-2,4′-piperidine]-1′-carboxylate], the IC50 turned out to be 4.63 µM in series [1] (A549, 4 h); 1.52 µM in series [2] (DLD-1, 4 h); 4.1 µM in series [3] (DU-145, 4 h); 2.01 µM in series [4] (K562, 4 h); 1.7 µM in series [5] (PaCa-2, 4 h); 4.78 µM in series [6] (NCM460, 4 h). For the same compound, the “Fold Selectivity (NCM-460/DLD1)” value in series [6] is given as 3.1.
`O=C1C(=O)c2ccccc2C2=C1SCC1(CCN(CC(O)COc3ccc(F)cc3)CC1)O2` (stereo not shown) [Compound 164, 1′-[3-(4-fluorophenoxy)-2-hydroxypropyl]spiro[naphtho[1,2-b][1,4]oxathiine-2,4′-piperidine]-5,6-dione]: the IC50 in series [1] (setting [7]) came out at 9.02 µM; in series [2] (setting [8]), 1.52 µM; in series [3] (setting [9]), 2.88 µM; in series [4] (setting [10]), 3.12 µM; in series [5] (setting [11]), 1.42 µM; in series [6] (setting [12]), 9.74 µM. The “Fold Selectivity (NCM-460/DLD1)” value in series [6] (ratio of IC50 NCM-460 / DLD1) is 6.4.
As to `Cc1nn(-c2ccccc2)nc1C(=O)N1CCC2(CC1)CSC1=C(O2)c2ccccc2C(=O)C1=O` [Compound 58, 1′-[(5-methyl-2-phenyl-2H-1,2,3-triazol-4-yl)carbonyl]spiro[naphtho[1,2-b][1,4]oxathiine-2,4′-piperidine]-5,6-dione], the IC50 in series [1] (setting [7]) was 42.2 µM; in series [2] (setting [8]), 13.7 µM; in series [3] (setting [9]) it was 12.2 µM; in series [4] (setting [10]), 14.2 µM; in series [5] (setting [11]) it was 11 µM; in series [6] (setting [12]) it was 79.9 µM. The “Fold Selectivity (NCM-460/DLD1)” value in series [6] (ratio of IC50 NCM-460 / DLD1) was 5.8.
For `Cc1ccccc1OCC(O)CN1CCC2(CC1)CSC1=C(O2)c2ccccc2C(=O)C1=O` (stereo not shown) [Compound 173, 1′-[2-hydroxy-3-(2-methylphenoxy)propyl]spiro[naphtho[1,2-b][1,4]oxathiine-2,4′-piperidine]-5,6-dione], the 50% inhibitory concentration (IC50) in series [1] (setting [7]) came out at 7 µM; in series [2] (setting [8]) it was 1.49 µM; in series [3] (setting [9]) it was 2.92 µM; in series [4] (setting [10]), 4.1 µM; in series [5] (setting [11]) it was 1.42 µM; in series [6] (setting [12]), 10.3 µM. In series [6] (ratio of IC50 NCM-460 / DLD1), the “Fold Selectivity (NCM-460/DLD1)” value was found to be 6.9.
Take `Cc1cc(C(=O)N2CCC3(CC2)CSC2=C(O3)c3ccccc3C(=O)C2=O)c(C)o1` [Compound 41, 1′-(2,5-dimethyl-3-furoyl)spiro[naphtho[1,2-b][1,4]oxathiine-2,4′-piperidine]-5,6-dione]: the IC50 was 4.84 µM in series [1] (setting [7]); 1.58 µM in series [2] (setting [8]); 3.1 µM in series [3] (setting [9]); 1.44 µM in series [4] (setting [10]); 1.47 µM in series [5] (setting [11]); 5.8 µM in series [6] (setting [12]). Also, the “Fold Selectivity (NCM-460/DLD1)” value in series [6] (ratio of IC50 NCM-460 / DLD1) was 3.7.
For `CS(=O)(=O)N1CCC2(CC1)CSC1=C(O2)c2ccccc2C(=O)C1=O` [Compound 75, 1′-(methylsulfonyl)spiro[naphtho[1,2-b][1,4]oxathiine-2,4′-piperidine]-5,6-dione], the concentration for half-maximal inhibition (IC50) in series [1] (setting [7]) was determined as 19.4 µM; in series [2] (setting [8]), 4.45 µM; in series [3] (setting [9]), 7.82 µM; in series [4] (setting [10]), 2.93 µM; in series [5] (setting [11]), 4.02 µM; in series [6] (setting [12]) it was 9.56 µM. For the same compound, the “Fold Selectivity (NCM-460/DLD1)” value in series [6] (ratio of IC50 NCM-460 / DLD1) is listed as 2.1.
Consider `CC(O)(CN1CCC2(CC1)CSC1=C(O2)c2ccccc2C(=O)C1=O)c1ccccc1` (stereo not shown) [Compound 177, 1′-(2-hydroxy-2-phenylpropyl)spiro[naphtho[1,2-b][1,4]oxathiine-2,4′-piperidine]-5,6-dione], for which the half-maximal inhibitory concentration (IC50) was found to be 14.9 µM in series [1] (setting [7]); 6.22 µM in series [2] (setting [8]); 4.55 µM in series [3] (setting [9]); 8.99 µM in series [4] (setting [10]); 4.18 µM in series [5] (setting [11]); 20.5 µM in series [6] (setting [12]). Moreover, the “Fold Selectivity (NCM-460/DLD1)” value in series [6] (ratio of IC50 NCM-460 / DLD1) is reported as 3.3.
For the compound `O=C1C(=O)c2ccccc2C2=C1SCC1(CCN(Cc3ccc(F)c(Cl)c3)CC1)O2` [Compound 142, 1′-(3-chloro-4-fluorobenzyl)spiro[naphtho[1,2-b][1,4]oxathiine-2,4′-piperidine]-5,6-dione], the IC50 turned out to be 44.2 µM in series [1] (setting [7]); 4.25 µM in series [2] (setting [8]); 6.93 µM in series [3] (setting [9]); 8.72 µM in series [4] (setting [10]); 10.5 µM in series [5] (setting [11]); 15.1 µM in series [6] (setting [12]). The “Fold Selectivity (NCM-460/DLD1)” value in series [6] (ratio of IC50 NCM-460 / DLD1) came to 3.6.
Regarding `O=C1C(=O)c2ccccc2C2=C1SCC1(CCN(CC(O)CC(F)(F)F)CC1)O2` (stereo not shown) [Compound 160, 1′-(4,4,4-trifluoro-2-hydroxybutyl)spiro[naphtho[1,2-b][1,4]oxathiine-2,4′-piperidine]-5,6-dione], the IC50 in series [1] (setting [7]) was determined as 6.72 µM; in series [2] (setting [8]) it was 1.69 µM; in series [3] (setting [9]), 3.92 µM; in series [4] (setting [10]), 1.53 µM; in series [5] (setting [11]), 1.55 µM; in series [6] (setting [12]), 5.56 µM. For the same compound, in series [6] (ratio of IC50 NCM-460 / DLD1), the “Fold Selectivity (NCM-460/DLD1)” value amounted to 3.3.
Take `O=C1C(=O)c2ccccc2C2=C1SCC1(CCN(S(=O)(=O)c3cccs3)CC1)O2` [Compound 78, 1′-(2-thienylsulfonyl)spiro[naphtho[1,2-b][1,4]oxathiine-2,4′-piperidine]-5,6-dione]: the concentration for half-maximal inhibition (IC50) in series [1] (setting [7]) turned out to be 46.7 µM; in series [2] (setting [8]), 11.1 µM; in series [3] (setting [9]) it was 12.7 µM; in series [4] (setting [10]), 14.7 µM; in series [5] (setting [11]) it was 11.1 µM; in series [6] (setting [12]), 30 µM. The “Fold Selectivity (NCM-460/DLD1)” value in series [6] (ratio of IC50 NCM-460 / DLD1) was 2.7.
`O=C1C(=O)c2ccc(Br)cc2C2=C1SCC1(CCN(C[C@H](O)COc3ccc(Cl)cc3)CC1)O2` yielded a melting point of 150 to 152 °C.
The same measure, in the same setting: to `COc1ccc2c(c1)C1=C(SCC3(CCN(C(=O)c4cccc(Cl)c4)CC3)O1)C(=O)C2=O` belongs 125 to 127 °C.
The same measure, in the same setting: to `CC(C)(C)c1ccc(OC[C@@H](O)CN2CCCC3(CSC4=C(O3)c3ccccc3C(=O)C4=O)C2)cc1` (stereo partly shown) belongs 90 to 92 °C; to `O=C1C(=O)c2ccccc2C2=C1SCC1(CCN(C(=O)c3cccc([N+](=O)[O-])c3)CC1)O2`, 160 to 162 °C.
Same read-out and setting: to `CC(C)(C)OC(=O)N1CCC2(CC1)CSC1=C(O2)c2cc(N3CCOCC3)ccc2C(=O)C1=O` belongs 243 to 244 °C; to `O=C1C(=O)c2ccccc2C2=C1SCC1(CCOCC1)O2`, 195 to 197 °C.
In the case of `CN(C)S(=O)(=O)N1CCC2(CC1)CSC1=C(O2)c2ccccc2C(=O)C1=O`, the melting point was 215 to 218 °C.
